Laboratory results as given in article PMC10569896, “Molecular Investigation of the Antitumor Effects of Monoamine Oxidase Inhibitors in Breast Cancer Cells” (BioMed Research International, 2023).

Experiments:
T-47D = test: cells; set-up: MTT cell viability assay, antiproliferative IC50 in T-47D breast cancer cells; conditions: Homo sapiens, T47D, 48 h
Protocol: (§1) To assess the effect of MAO-AIs on the survival and proliferation of breast cancer cells, MTT colorimetric analysis was performed as previously described. MDA-MB-231 and T47D cells were seeded into a 96-well plate, at a different seeding density per well depending on proliferation ability, doubling time, and target time of treatment. Then, cells were maintained at 37°C in a humidified 5% CO2 atmosphere. Cell viability was calculated as follows: cell viability (%) = [(optical density of viable cells in the test group)/optical density of viable cells in the negative control group] × 100%. Experiments were run at least 2-3 times independently. […] The ratio of IC50 for each drug alone guided the selection of an appropriate combination ratio. As described earlier, the MTT test was used to determine cell viability after treatment time elapsed (48 hours). CompuSyn software (ComboSyn Inc., Paramus, NJ, USA) was used to determine the combination index (CI), which is based on Chou-Talalay's combination index theorem, and its formula is the sum of the ratio of the dose of each drug in the compound to the dose when used alone when the combination and compound produce 50% efficacy. CI values < 1, =1, and > 1 indicate synergism, additive, and antagonistic effects, respectively, as shown in Equation (1). In this study, MTT assay was performed after exposing MDA-MB-231 and T-47d cell lines to increasing concentrations of MAO-A inhibitors for either 24, 48, or 72 h. […] Breast cancer cell lines, T-47D and MDA-MB-231 cells, were purchased from American Type Culture Collection (ATCC, USA). Cells were cultured in DMEM high glucose culture medium supplemented with 10% fetal bovine serum (FBS), 2 mM L-glutamine, 100 U/mL penicillin, and 0.1 mg/mL streptomycin. Cells were maintained in a humidified controlled temperature incubator set at 37°C, 95% humidity, and 5% CO2.

MDA-MB-231 = test: cells; set-up: MTT cell viability assay, antiproliferative IC50 in MDA-MB-231 breast cancer cells; conditions: Homo sapiens, MDA-MB-231, 48 h
Protocol: as §1

| IC50 (T-47D) [µM] | IC50 (MDA-MB-231) [µM] | Structure (SMILES) |
| --- | --- | --- |
| 2.2 | 2 | COc1cccc2c1C(=O)c1c(O)c3c(c(O)c1C2=O)C[C@@](O)(C(=O)CO)C[C@@H]3O[C@H]1C[C@H](N)[C@H](O)[C@H](C)O1 [Doxorubicin] |
| 157 | 163 | C#CCN(C)CCCOc1ccc(Cl)cc1Cl [J19, clorgyline] |
| 28 | 27 | O=C(c1ccc(OCCN2CCCCC2)cc1)c1c(-c2ccc(O)cc2)sc2cc(O)ccc12 [Raloxifene] |
